Test results: article PMC10787225 (Computational and Structural Biotechnology Journal, 2023)
Entries after “also recorded” stand apart in the source; their conditions may differ. Where no end group is shown, it is not given here.

Assays:
[1] = target: β-wrapin AS10; conditions: cited from earlier work
From the text: We have previously observed β-hairpins in amyloid-β (Aβ), α-synuclein (αSyn), and islet amyloid polypeptide (IAPP), amyloidogenic proteins associated with AD, PD, and T2D, respectively (Fig. 2), [38], [39]. These β-hairpins are established upon binding to engineered binding proteins termed β-wrapins. β-Wrapins are selected from protein libraries based on ZAβ3, an affibody with high affinity for monomeric Aβ [37], [39], [40], [41], [42]. β-Hairpin structures of Aβ, αSyn and IAPP have been determined by NMR spectroscopy of their complexes with ZAβ3 and the β-wrapins AS69 and ...

[2] = Thioflavin T (ThT) aggregation assay; type: physicochemical
Description: All ThT aggregation assays were done in Greiner 96-well half-area, clear bottom, low-binding plates. The measurements themselves were done in a BMG CLARIOstar plate reader at 37 °C and 300 rpm shaking in orbital mode with one glass bead (0.75–1 mm, Roth) per well. Wells with samples were always surrounded by wells filled with liquid, either other samples or 150 μl water, to counter potential artefacts due to evaporation. […] Final concentrations of 25 µM ThT and 0.04% sodium azide (NaN3) were added. The plate was sealed with sealing tape and put into the plate reader, heated to 37 °C, and ThT fluorescence was read in 1000 cycles of 300 s each using bottom optics with excitation at 448 nm (10 nm bandwidth) and emission at 482 nm (10 nm bandwidth). […] Samples contained 40 µM ThT and 0.04% NaN3.
Fig. 4 Test set of eight protein segments. (A) List of the investigated peptides. Underlined stretches in the peptide sequences correspond to the predicted amyloidogenic β-hairpins. A peptide was considered ‘soluble’ when no visible precipitation occurred upon dissolution of the lyophilized peptide in 20 mM NaPi, pH 7.4, 50 mM NaCl, to a final concentration of 20 µM. […] (B) Conformations of investigated segments (red) in the context of their source proteins.

[3] = target: β-wrapin AS10; assay: Isothermal titration calorimetry (ITC) of peptide binding to AS10; conditions: 30 °C, 30 µM AS10 in cell, peptide titrated from syringe, 20 mM sodium phosphate, pH 7.4, 50 mM NaCl, 1:1 binding model, read-out: Affinity to AS10 (dissociation constant KD)
Description: ITC was performed at 30 °C using a Microcal iTC200 calorimeter (GE Healthcare). AS10 was filled into the cell at a concentration of 30 µM in 20 mM sodium phosphate, pH 7.4, 50 mM NaCl. Peptides were titrated from the syringe in approximately 10-fold higher concentrations. Heats of post-saturation injections were averaged and subtracted from each injection to correct for heats of dilution and mixing. Dissociation constants were obtained from a nonlinear least-squares fit to a 1:1 binding model using MicroCal Origin.

[4] = Atomic force microscopy (AFM) of samples at the end of ThT aggregation assays; type: physicochemical
Description: (§1) For AFM imaging, 2 μl samples were taken out of the wells at the end of the ThT aggregation assays, put onto a freshly cleaved muscovite mica surface and dried during incubation for 10 min under the clean bench. Subsequently, the samples were washed with 100 μl ddH2O in three steps and dried with a stream of N2 gas. Imaging was performed in intermittent contact mode (AC mode) in a JPK NanoWizard 3 atomic force microscope using a silicon cantilever with silicon tip (OMCL-AC160TS-R3, Olympus) with a typical tip radius of 9 ± 2 nm, a force constant of 26 N/m and resonance frequency around 300 kHz. The images were processed using JPK DP Data Processing Software (version spm-5.0.84).

[5] = tested on: PAP(248−286); assay: ThT aggregation assay and AFM of PAP(248−286) in presence of added peptide; type: biochemical, human
Description: (§2) All ThT aggregation assays were done in Greiner 96-well half-area, clear bottom, low-binding plates. The measurements themselves were done in a BMG CLARIOstar plate reader at 37 °C and 300 rpm shaking in orbital mode with one glass bead (0.75–1 mm, Roth) per well. Wells with samples were always surrounded by wells filled with liquid, either other samples or 150 μl water, to counter potential artefacts due to evaporation. […] Final concentrations of 25 µM ThT and 0.04% sodium azide (NaN3) were added. The plate was sealed with sealing tape and put into the plate reader, heated to 37 °C, and ThT fluorescence was read in 1000 cycles of 300 s each using bottom optics with excitation at 448 nm (10 nm bandwidth) and emission at 482 nm (10 nm bandwidth). […] PAP(248−286) and SEM1(86−107) were kept at constant concentrations of 500 and 300 µM, respectively. […] Samples contained 40 µM ThT and 0.04% NaN3.
as §1

[6] = tested on: SEM1(86−107); assay: ThT aggregation assay and AFM of SEM1(86−107) in presence of added peptide; type: biochemical, human
Description: as §2, §1

## Aβ: amyloid-β, amyloidogenic protein associated with AD
[1]
  Affinity for β-wrapin AS10: sub-micromolar

## IAPP: islet amyloid polypeptide, amyloidogenic protein associated with T2D (KCNTATCATQRLANFLVHSSNNFGAILSSTNVGSNTY; Islet amyloid polypeptide; UniProt P10997 34-70, looked up)
[1]
  Affinity for β-wrapin AS10: sub-micromolar

## KDFIATLGKLSGLHGQDLFGIWSK [PAP(185−208)]
[2]; 20–25 µM peptide, 20 mM NaPi, pH 7.4, 50 mM NaCl, 37 °C, 25 µM ThT, triplicate
  ThT fluorescence time course: no increase in fluorescence intensity was detected
[2]; ThT assay, Fig. 5D (550 µM, 20 mM NaPi, pH 7.4, 50 mM NaCl)
  Peptide concentration sufficient for amyloid formation: > 0.5 mM
[2]; peptide 20–550 µM, up to 85 h, 20 mM NaPi, pH 7.4, 50 mM NaCl, 37 °C, 300 rpm, glass bead, 25 µM ThT, triplicate
  ThT: +
[2]; peptide alone 25–100 µM (up to 100 µM), 50 mM Tris, pH 8.5, 37 °C, 40 µM ThT
  ThT fluorescence of peptide alone: did not exhibit ThT fluorescence; also recorded: do not exhibit ThT fluorescene
[2]; peptide increased to 500–550 µM, 20 mM NaPi, pH 7.4, 50 mM NaCl, 37 °C, 25 µM ThT, triplicate
  ThT fluorescence time course: exhibited ThT fluorescence
[3]
  Kd: 39 ± 5 µM
[4]; end of ThT aggregation assay in 20 mM NaPi, pH 7.4, 50 mM NaCl, dried on mica
  AFM aggregate morphology: fibrillar aggregates confirming amyloid formation were detected
[4]; end of ThT assay at moderate peptide concentrations without ThT fluorescence, 50 mM Tris, pH 8.5
  AFM aggregate morphology of individual peptide: aggregates of amorphous shape
[5]; 500 µM PAP(248−286), added peptide 25–100 µM, 50 mM Tris, pH 8.5, 37 °C, 40 µM ThT
  Effect of added peptide on ThT time trace of PAP(248−286): ThT time traces featuring a lag-time and a phase of rapid growth indicative of amyloid formation
[5]; AFM at end of aggregation assay, 500 µM PAP(248−286) with PAP(185−208)
  AFM morphology after co-incubation with PAP(248−286): shift to fibrillar aggregate morphology
[6]; 300 µM SEM1(86−107), added peptide 25–100 µM, 50 mM Tris, pH 8.5, 37 °C, 40 µM ThT
  Effect of added peptide on ThT time trace of SEM1(86−107): ThT time traces featuring a lag-time and a phase of rapid growth indicative of amyloid formation
[6]; AFM at end of aggregation assay, 300 µM SEM1(86−107) with PAP(185−208)
  AFM morphology after co-incubation with SEM1(86−107): shift to fibrillar aggregate morphology
